Marks after values point to notes of the source that are not given here.
Legend:
Type in all cases: cell-based
[1] = tested on: c-Fos mRNA in RAW264.7 cells; experiment: RT-PCR, RANKL-induced mRNA expression of c-Fos; details: for RANKL-induced mRNA expression level of c-Fos: RAW264.7 cells, 24 hours, CTL 100%, mean ± SEM
Excerpt: (§1) The culture medium was discarded. […] [table] f) Running • A.

[2] = tested on: NFATc1 mRNA in RAW264.7 cells; experiment: RT-PCR, RANKL-induced mRNA expression of NFATc1; details: for RANKL-induced mRNA expression level of NFATc1: RAW264.7 cells, 24 hours, CTL 100%, mean ± SEM
Excerpt: as §1

osteoclast-like cells = experiment: Pit formation assay (dissolution of osteoclast-like cells); details: calcium phosphate coated plates, 10 ng/ml RANKL for five days, different concentrations, FIG. 5
Method: In order to confirm the influence of KMUP-1 to the bone dissolution of differentiated osteoclast-like cells, cells are cultured in the plates which are coated calcium phosphate of bone-like matrix in the bottom and are given 10 ng/ml RANKL for five days and different concentration of KMUP-1. According to the result, compared with the control group, in the group which is given 10 ng/ml RANKL alone for 5 days, the osteoclast-like cells have obviously dissolution activity, so the covers at the plate bottom present many holes. […] Subsequently, 100 μl medium with 1,000 cells were added into each well, and the total volume was 300 μl/well. The slides were incubated for 5 days, and the medium and the drugs were renewed every 2 days. After 5 days, the medium was removed, and the cells were washed by ddH2O 3 times. Subsequently, the cells were covered by Bleach solution for staining 5 minutes and then were washed by ddH2O for 5 times. After drying, the cells were took a photo by an optical microscopy (40× and 200×), and Autopano Pro V1.4.2, Kolor, Paris, was used to proceed the pictures taken in 40×.

[3] = tested on: p65 in the cell nucleus of RAW264.7 cells; experiment: Western blot, amount of p65 in nuclei induced by RANKL; details: KMUP-1 in advance 24 hours, RANKL 30 minutes, FIG. 8(B)
Method: IκBα which originally binds with NF-κB to inhibit its activity in cytoplasm is stimulated by RANKL to be phosphorylized and be hydrolyzed after separating from NF-κB. Then, the free NF-κB transfers into a cell nucleus to play a role as a transcription factor. According to the experimental result, compared with the control group, in the group induced by RANKL for 30 minutes, the IκBα in the cytoplasm is obviously phosphorylized and hydrolyzed. […] According to the result, KMUP-1 can inhibit NF-κB activation induced by RANKL. Nuclear proteins were extracted according to the instructions of NE-PER kit. 2.5×10^6 cells were plated per well in 24-well plates. […] Subsequently, the cells were added by 5.5 μ[…] and shaken for 5 seconds and then put on ice for 1 minute. After that, the cells were shaken again for 5 seconds and centrifuged (10,000 rpm, 4° C., 5 minutes). Cytoplasm and Nuclei could be separated by this process, and the supernatant was cytoplasmic proteins, and the pallet was nuclei. The supernatant was stored in an eppendorf in -80° C. b) Extraction of Nuclear Proteins The nuclear pallet was added by 500 μl PBS and centrifuged (10,000 rpm, 4° C., 5 minutes), and the supernatant was discarded. The pallet could be washed by this process and prevented contamination. […]

[4] = tested on: MMP-9 enzyme activity of RAW264.7 cells; experiment: Gelatin zymography, enzyme activity of MMP-9 induced by RANKL; details: 10 μM, RANKL 24 hours, FIG. 21
Method: KMUP-1 influences there major up-stream signal transduction pathways which are related to RANK/RANKL. Western blot is used to estimate the amount of matrix metalloproteinase (MMP)-2 and MMP-9 which are related to the dissolution of osteoclast-like cells, and the enzyme activity of MMP-2 and MMP-9 are estimated via Gelatin Zymography. […] After 24 hours reaction, the reaction fluid was centrifuged (13,000 rpm, 4° C., 20 minutes), and then the supernatant was stored in −80° C. • b) 10% gel preparation. 10 mg gelatin was added by 1 ml ddH2O and then was heated in water bath until the solution was clear. • c) Concentrations of the proteins were examined by Bio-Red DC Protein Assay. After knowing the concentrations, the proteins were diluted to specific concentrations by adding ddH2O. One forth volume of the diluted proteins of sample buffer was added into the diluted proteins. After shaking, the diluted proteins could be added into wells of the gel. Subsequently, 1× running buffer was added with the gel, and then the gel was run at 100 V for 10 minutes until the proteins were driven to the intersection between a loading gel and a running gel. Then, the voltage was swopped to 200 V for 60 minutes. • d) After electrophoresis, the loading gel was discarded, and the left gel was washed by TritonX-100 buffer for 30 minutes in room temperature twice. […]

[5] = 10 ng/ml RANKL, summary of Table 1

In the case of `Cn1c(=O)c2c(ncn2CCN2CCN(c3ccccc3Cl)CC2)n(C)c1=O` [KMUP-1, 7-[2-[4-(2-Chlorophenyl)piperazin-1-yl]ethyl] theophylline], the “effect on mRNA expression of c-Fos induced by RANKL (in words)” value [1, 5] is reported as “inhibits the mRNA expression”, the “RANKL-induced mRNA expression level of c-Fos” value ([1]; RANKL 10 ng/ml + KMUP-1 1 μM) is reported as 105.4 ± 8.1% and the “RANKL-induced mRNA expression level of c-Fos” value ([1]; RANKL 10 ng/ml + KMUP-1 2.5 μM) is reported as 100.3 ± 4.7%. For the same molecule, the “RANKL-induced mRNA expression level of c-Fos” value ([1]; RANKL 10 ng/ml + KMUP-1 5 μM) was 84.5 ± 5.2% ^b, the “RANKL-induced mRNA expression level of c-Fos” value ([1]; RANKL 10 ng/ml + KMUP-1 7.5 μM) was 67.1 ± 4.5% ^b and the “RANKL-induced mRNA expression level of c-Fos” value ([1]; RANKL 10 ng/ml + KMUP-1 10 μM) was 73.1 ± 6.3% ^b. For the same molecule, the “effect on mRNA expression of NFATc1 induced by RANKL (in words)” value [2, 5] was “inhibits the mRNA expression”, the “RANKL-induced mRNA expression level of NFATc1” value ([2]; RANKL 10 ng/ml + KMUP-1 1 μM) was 256.9 ± 7.5% and the “RANKL-induced mRNA expression level of NFATc1” value ([2]; RANKL 10 ng/ml + KMUP-1 2.5 μM) was 184.7 ± 4.2% ^b. For the same molecule, the “RANKL-induced mRNA expression level of NFATc1” value ([2]; RANKL 10 ng/ml + KMUP-1 5 μM) was 161.8 ± 2.9% ^b, the “RANKL-induced mRNA expression level of NFATc1” value ([2]; RANKL 10 ng/ml + KMUP-1 7.5 μM) was 132.9 ± 2.4% ^b and the “RANKL-induced mRNA expression level of NFATc1” value ([2]; RANKL 10 ng/ml + KMUP-1 10 μM) was 121.5 ± 4.5% ^b. The “dissolution of osteoclast-like cells (dissolution area)” value (osteoclast-like cells) was “can inhibit the dissolution of osetocalst-like cells”, the “amount of p65 in the cell nucleus induced by RANKL” value [3] was “has the inhibiting effect on that p65 enters into a cell nucleus” and the “enzyme activity of MMP-9 induced by RANKL” value [4] was “can reduce the enzyme activity of MMP-2 and MMP-9”.
